Assay [1] concerns the target T1, smooth muscle angiotensin II receptor.
T1 construct: Rat uterine membranes were prepared from fresh tissue
Description: Assay A: Angiotensin II Binding Activity. As to conditions: rat uterine membrane preparation, displacement of 125I-AII. On the procedure:
Assay A: Angiotensin II Binding Activity
Compounds of Formula I were tested for ability to bind to the smooth muscle angiotensin II receptor using a rat uterine membrane preparation. […] Other chemicals were obtained from Sigma Chemical Co. This assay was carried out according to the method of Douglas et al [Endocrinology, 106, 120–124 (1980)]. Rat uterine membranes were prepared from fresh tissue. All procedures were carried out at 4° C. Uteri were stripped of fat and homogenized in phosphate-buffered saline at pH 7.4 containing 5 mM EDTA. The homogenate was centrifuged at 1500×g for 20 min., and the supernatant was recentrifuged at 100,000×g for 60 min. The pellet was resuspended in buffer consisting of 2 mM EDTA and 50 mM Tris-HCl (pH 7.5) to a final protein concentration of 4 mg/ml. […] The reaction was initiated by the addition of membrane protein and the mixture was incubated at 25° C. for 60 min. The incubation was terminated with ice-cold 50 mM Tris-HCl (pH 7.5) and the mixture was filtered to separate membrane-bound labelled peptide from the free ligand. The incubation tube and filter were washed with ice-cold buffer. Filters were assayed for radioactivity in a Micromedic gamma counter. Nonspecific binding was defined as binding in the presence of 10 μM of unlabelled AII. Specific binding was calculated as total binding minus nonspecific binding. […] Binding data were analyzed by a nonlinear least-squares curve fitting program.

In the next assay the test system is rabbit aortic rings. Description: Assay B: In Vitro Vascular Smooth Muscle Response for AII. Type of assay: cell-based. As to conditions: for Assay B pA2 / Kb: antagonist at 10^-5 M, two values per cell = aorta rings from two rabbits; for Kb: Oryctolagus cuniculus, read-out: Assay B pA2 (converted). On the procedure:
Assay B: In Vitro Vascular Smooth Muscle-Response for ATT
Compounds of Formula I were tested for antagonist activity in rabbit aortic rings. Male New Zealand white rabbits (2–2.5 kg) were sacrificed using an overdose of pentobarbital and exsanguinated via the carotid arteries. The thoracic aorta was removed, cleaned of adherent fat and connective tissue and then cut into 3-mm ring segments. The endothelium was removed from the rings by gently sliding a rolled-up piece of filter paper into the vessel lumen. The rings were then mounted in a water-jacketed tissue bath, maintained at 37° C., between moveable and fixed ends of a stainless steel wire with the moveable end attached to an FT03 Grass transducer coupled to a Model 7D Grass Polygraph for recording isometric force responses. The bath was filled with 20 ml of oxygenated (95% oxygen/5% carbon dioxide) Krebs solution of the following composition […]: 130 NaCl, 15 NaHCO3, 15 KCl, 1.2 NaH2PO4, 1.2 MgSO4, 2.5 CaCl2, and 11.4 glucose. The preparations were equilibrated for one hour before approximately one gram of passive tension was placed on the rings. Angiotensin II concentration-response curves were then recorded (3×10^−10 to 1×10–5 M). Each concentration of AII was allowed to elicit its maximal contraction, and then AII was washed out repeatedly for 30 minutes before rechallenging with a higher concentration of AII. Aorta rings were exposed to the test antagonist at 10^−5 M for 5 minutes before challenging with AII. Adjacent segments of the same aorta ring were used for all concentration-response curves in the presence or absence of the test antagonist. The effectiveness of the test compound was expressed in terms of pA2 values and were calculated according to H. O. Schild [Br. J. Pharmacol. Chemother., 2, 189–206 (1947)]. […] Each test antagonist was evaluated in aorta rings from two rabbits.

As for “1,1-dimethylethyl [3-butyl-[1-2′-(1H-tetrazol-5-yl)[1,1′-biphenyl]-4-ylmethyl]-1H-1,2,4-triazol-5-yl]methylcarbamate [Example 34]”, the IC50 in assay [1] was 640 nM.

As for `CCCCc1nc(Cl)n(Cc2ccc(-c3ccccc3C(=O)O)cc2)n1` (single isomer, unassigned) [Example 8, 4′-[(3-butyl-5-chloro-1H-1,2,4-triazol-1-yl)methyl][1,1′-biphenyl]-2-carboxylic acid], in assay [1], the IC50 stood at 17000 nM. With `CCCCc1ncnn1Cc1ccc(-c2ccccc2C(=O)O)cc1` (single isomer, unassigned) [Example 18, 4′-[(5-butyl-1H-1,2,4-triazol-1-yl)methyl][1,1′-biphenyl]-2-carboxylic acid], the “Assay B pA2” value with rabbit aortic rings worked out at 6.09. The same compound registered an IC50 in assay [1] of 970 nM. The corresponding values for `CCCCc1ncn(Cc2ccc(-c3ccccc3C(=O)O)cc2)n1` (single isomer, unassigned) [Example 19, 4′-[(3-butyl-1H-1,2,4-triazol-1-yl)methyl][1,1′-biphenyl]-2-carboxylic acid] are 5.35 and 12000 nM.

As for `CCCCc1nc(C(OC)OC)nn1Cc1ccc(-c2ccccc2-c2nnn[nH]2)cc1` (single isomer, unassigned) [Example 24], in the assay on rabbit aortic rings, the “Assay B pA2” value was found to be 7.73. The IC50 in assay [1] stood at 10 nM. As to `CCCCc1nc(CCc2ccccc2)n(Cc2ccc(-c3ccccc3-c3nnn[nH]3)cc2)n1` (single isomer, unassigned) [Example 25], the “Assay B pA2” value with rabbit aortic rings is on record as 6.73. The compound also registered an IC50 in assay [1] of 480 nM. In turn, `CCCCCCCCc1nc(CCCC)n(Cc2ccc(-c3ccccc3-c3nnn[nH]3)cc2)n1` (single isomer, unassigned) [Example 29, 5-[4′-[(5-butyl-3-octyl-1H-1,2,4-triazol-1-yl)methyl][1,1′-biphenyl]-2-yl]-1H-tetrazole] showed an IC50 in assay [1] of 160 nM. Same read-out and setting: as for `CCCCc1nc(C)n(Cc2ccc(-c3ccccc3-c3nnn[nH]3)cc2)n1` (single isomer, unassigned) [Example 33, 5-[4′-[(3-butyl-5-methyl-1H-1,2,4-triazol-1-yl)methyl][1,1′-biphenyl]-2-yl]-1H-tetrazole], the figure is 630 nM. In the case of `CCCCc1nc(CC(OCC)OCC)n(Cc2ccc(-c3ccccc3-c3nnn[nH]3)cc2)n1` (single isomer, unassigned) [Example 37, 5-[4′-[[3-butyl-5-(2,2-diethyoxyethyl)-1H-1,2,4-triazol-1-yl]methyl][1,1′-biphenyl]-2-yl]-1H-tetrazole], the “Assay B pA2” value in the assay on rabbit aortic rings turned out to be 6.85. For the same compound, in assay [1], the IC50 came to 340 nM.

For the compound `CCCCc1nc(CC(OCC)OCC)nn1Cc1ccc(-c2ccccc2-c2nnn[nH]2)cc1` (single isomer, unassigned) [Example 38, 5-[4′-[[5-butyl-3-(2,2-diethyoxyethyl)-1H-1,2,4-triazol-1-yl]methyl][1,1′-biphenyl]-2-yl]-1H-tetrazole], the half-inhibitory concentration (IC50) in assay [1] turned out to be 10 nM. `CCCCc1nc(CC)nn1Cc1ccc(-c2ccccc2-c2nnn[nH]2)cc1` (single isomer, unassigned) [Example 39, 5-[4′-[(5-butyl-3-ethyl-1H-1,2,4-triazol-1-yl)methyl][1,1′-biphenyl]-2-yl]-1H-tetrazole]: in the assay with rabbit aortic rings, the “Assay B pA2” value came out at 7.84. Moreover, in assay [1], the IC50 stood at 10 nM. Regarding `CCCCc1nc(CC)n(Cc2ccc(-c3ccccc3-c3nnn[nH]3)cc2)n1` (single isomer, unassigned) [Example 40, 5-[4′-[(3-butyl-5-ethyl-1H-1,2,4-triazol-1-yl)methyl][1,1′-biphenyl]-2-yl]-1H-tetrazole], the IC50 in assay [1] was 83 nM. As for `CCCCc1nc(CCC2CCCCC2)n(Cc2ccc(-c3ccccc3-c3nnn[nH]3)cc2)n1` (single isomer, unassigned) [Example 42, 5-[4′-[[3-butyl-5-(2-cyclohexylethyl)-1H-1,2,4-triazol-1-yl]methyl][1,1′-biphenyl]-2-yl]-1H-tetrazole], the “Assay B pA2” value in the assay on rabbit aortic rings was 6.26. Further, the IC50 in assay [1] amounted to 370 nM. Turning to `CCCCc1nc(CCC2CCCCC2)nn1Cc1ccc(-c2ccccc2-c2nnn[nH]2)cc1` (single isomer, unassigned) [Example 43, 5-[4′-[[5-butyl-3-(2-cyclohexylethyl)-1H-1,2,4-triazol-1-yl]methyl][1,1′-biphenyl]-2-yl]-1H-tetrazole], the IC50 in assay [1] stood at 19 nM.

Take `CCCCc1nc(C(F)F)nn1Cc1ccc(-c2ccccc2-c2nnn[nH]2)cc1` (single isomer, unassigned) [Example 47, 5-[4′-[[5-butyl-3-(difluoromethyl)-1H-1,2,4-triazol-1-yl]methyl][1,1′-biphenyl]-2-yl]-1H-tetrazole]: the “Assay B pA2” value in the assay with rabbit aortic rings is on record as 7.58. For the same compound, the half-inhibitory concentration (IC50) in assay [1] is 21 nM. `CCCCc1nc(C(F)F)n(Cc2ccc(-c3ccccc3-c3nnn[nH]3)cc2)n1` (single isomer, unassigned) [Example 48, 5-[4′-[[3-butyl-5-(difluoromethyl)-1H-1,2,4-triazol-1-yl]methyl][1,1′-biphenyl]-2-yl]-1H-tetrazole]: in assay [1], the IC50 came to 680 nM. As to `CCCCc1nc(CCCC)n(Cc2ccc(-c3ccccc3C(=O)O)cc2)n1` [Example 2, 4′-[(3,5-dibutyl-1H-1,2,4-triazol-1-yl)methyl][1,1′-biphenyl]-2-carboxylic acid], in the assay with rabbit aortic rings, the Kb is 42.7 nM. As for `CCCCc1nc(C(F)(F)CCC)n(Cc2ccc(-c3ccccc3C(=O)O)cc2)n1` [Example 11, 4′-[[3-butyl-5-(1,1-difluorobutyl)-1H-1,2,4-triazol-1-yl]methyl][1,1′-biphenyl]-2-carboxylic acid], the IC50 in assay [1] was determined as 160 nM. As for `CCCc1nc(CN)nn1Cc1ccc(-c2ccccc2-c2nnn[nH]2)cc1` [Example 12, 5-[4′-[(3-aminomethyl-5-propyl-1H-1,2,4-triazol-1-yl)methyl][1,1′-biphenyl]-2-yl]-1H-tetrazole], the Kb in the assay with rabbit aortic rings was 2.19 nM. In assay [1], this compound returned a concentration for half-maximal inhibition (IC50) of 6 nM. Consider `CCCCCc1nc(CN)nn1Cc1ccc(-c2ccccc2-c2nnn[nH]2)cc1` [Example 13, 5-[4′-[(3-aminomethyl-5-pentyl-1H-1,2,4-triazol-1-yl)methyl][1,1′-biphenyl]-2-yl]-1H-tetrazole], for which the Kb in the assay with rabbit aortic rings is 2 nM. Turning to `CCCCc1nc(CCC)nn1Cc1ccc(-c2ccccc2C(=O)O)cc1` [Example 14, 4′-[(5-butyl-3-propyl-1H-1,2,4-triazol-1-yl)methyl]-[1,1′-biphenyl]-2-carboxylic acid], the Kb in the assay on rabbit aortic rings was 1.45 nM. Still for that read-out and setting: the result for `CCCCc1nc(CCC(C)C)n(Cc2ccc(-c3ccccc3C(=O)O)cc2)n1` [Example 16] reads 1.12 nM. Turning to `CCCCc1nc(CNC(C)=O)nn1Cc1ccc(-c2ccccc2-c2nnn[nH]2)cc1` [Example 31, N-[[5-butyl-1-[2′-(1H-tetrazol-5-yl)[1,1′-biphenyl]-4-ylmethyl]-1H-1,2,4-triazol-3-yl]methyl]acetamide], in assay [1], the IC50 is 14 nM.

Consider `CCCCc1nc(C=O)nn1Cc1ccc(-c2ccccc2-c2nnn[nH]2)cc1` [Example 49, 5-butyl-1-[2′-(1H-tetrazol-5-yl)[1,1′-biphenyl]-4-ylmethyl]-1H-1,2,4-triazole-3-carboxaldehyde], for which the “Assay B pA2” value in the assay with rabbit aortic rings is 7.07. The compound `CCCCc1nc(C(F)(F)C(F)(F)C(F)(F)F)nn1Cc1ccc(-c2ccccc2-c2nnn[nH]2)cc1` [Example 70, 5-[4′-[[3-(1,1,2,2,3,3,3-heptafluoropropyl)-5-butyl-1H-1,2,4-triazol-1-yl]methyl][1,1′-biphenyl]-2-yl]-1H-tetrazole] had an IC50 in assay [1] of 44 nM. As for `CCCCc1nc(CCCN)n(Cc2ccc(-c3ccccc3-c3nnn[nH]3)cc2)n1` [Example 71, 5-[4-[[3-butyl-5-(3-aminopropyl)-1H-1,2,4-triazol-1-yl]methyl][1,1′-biphenyl]-2-yl]-1H-tetrazole], the “Assay B antagonist activity (symbol in pA2 column)” value in the assay with rabbit aortic rings is on record as “* (Antagonist activity not observed up to 10 μM of test compound.)”.
